The values below come from ChEMBL document CHEMBL3868635, “Bromomethylthioindole Inspired Carbazole Hybrids as Promising Class of Anti-MRSA Agents” (ACS Med Chem Lett, 2016).

Data set [1] concerns Staphylococcus aureus. The data set can be described thus: Antibacterial activity against methicillin-susceptible Staphylococcus aureus ATCC 29213 incubated for overnight measured after 20 to 24 hrs by broth microdilution method. The class given is functional. (In general: Broth dilution looks for growth in wells or tubes with falling amounts of substance.)
Data set [2] has as its system Staphylococcus aureus. Briefly: Antibacterial activity against methicillin-resistant Staphylococcus aureus ATCC 43300 incubated for overnight measured after 20 to 24 hrs by broth microdilution method. The class given is functional.
The test system of data set [3] is Staphylococcus aureus. The data set can be described thus: Antibacterial activity against vancomycin-intermediate and daptomycin-nonsusceptible methicillin-resistant Staphylococcus aureus Z172 incubated for overnight measured after 20 to 24 hrs by broth microdilution method. It counts as functional.
In data set [4] the test system is Staphylococcus aureus. The data set can be described thus: Antibacterial activity against methicillin-resistant Staphylococcus aureus 4N216 incubated for overnight measured after 20 to 24 hrs by broth microdilution method. It counts as functional.
Data set [5] has as its system Staphylococcus aureus. Briefly: Antibacterial activity against methicillin-susceptible Staphylococcus aureus M056 incubated for overnight measured after 20 to 24 hrs by broth microdilution method. The class given is functional.
A further data set deals with Pseudomonas aeruginosa. Briefly: Antibacterial activity against Pseudomonas aeruginosa ATCC 27853 incubated for overnight measured after 20 to 24 hrs by broth microdilution method. It counts as functional.
The test system of data set [6] is Staphylococcus aureus. The data set can be described thus: Antibacterial activity against methicillin-resistant Staphylococcus aureus M013 incubated for overnight measured after 20 to 24 hrs by broth microdilution method. It counts as functional.
Data set [7] has as its system Staphylococcus aureus. Briefly: Antibacterial activity against methicillin-resistant Staphylococcus aureus Y069 incubated for overnight measured after 20 to 24 hrs by broth microdilution method. It counts as functional.
For data set [8], the system named is Staphylococcus aureus. The data set can be described thus: Antibacterial activity against methicillin-resistant Staphylococcus aureus N043 incubated for overnight measured after 20 to 24 hrs by broth microdilution method. It counts as functional.
In data set [9] the test system is Enterococcus faecalis. Briefly: Antibacterial activity against vancomycin-resistant Enterococcus faecalis ATCC 51299 incubated for overnight measured after 20 to 24 hrs by broth microdilution method. The class given is functional.
The next data set concerns Acinetobacter baumannii. The data set can be described thus: Antibacterial activity against Acinetobacter baumannii ATCC 19606 incubated for overnight measured after 20 to 24 hrs by broth microdilution method. It counts as functional.
The subject of a further data set is Escherichia coli. Briefly: Antibacterial activity against Escherichia coli ATCC 25922 incubated for overnight measured after 20 to 24 hrs by broth microdilution method. The class given is functional.
Data set [10] has as its system Staphylococcus aureus. Briefly: Antibacterial activity against methicillin-resistant Staphylococcus aureus Z234 incubated for overnight measured after 20 to 24 hrs by broth microdilution method. The class given is functional.
Data set [11] deals with Staphylococcus aureus. Briefly: Antibacterial activity against methicillin-resistant Staphylococcus aureus L166 incubated for overnight measured after 20 to 24 hrs by broth microdilution method. The class given is functional.
Another data set relates to Klebsiella pneumoniae. Briefly: Antibacterial activity against Klebsiella pneumoneae ATCC 700603 incubated for overnight measured after 20 to 24 hrs by broth microdilution method. It counts as functional.
Data set [12] deals with Staphylococcus aureus. Briefly: Antibacterial activity against methicillin-resistant Staphylococcus aureus C217 incubated for overnight measured after 20 to 24 hrs by broth microdilution method. It counts as functional.
Data set [13] in a line: AUC (0 to 24 hrs) in ICR mouse plasma at 10 mg/kg, iv by LC-MS/MS analysis. Details: dose 10 mg/kg, time < 24 hr, route intravenous. The class given is ADME, organism-based.
Data set [14] is described as follows: Clearance in ICR mouse plasma at 10 mg/kg, iv by LC-MS/MS analysis. The class given is ADME, organism-based.
A short description of data set [15]: Volume of distribution at steady state in ICR mouse plasma at 10 mg/kg, iv by LC-MS/MS analysis. It counts as ADME, organism-based. The conditions noted are these: read-out: Vdss.
Data set [16] in a line: Half life in ICR mouse plasma at 10 mg/kg, iv by LC-MS/MS analysis. The class given is ADME, organism-based.
Data set [17] in a line: Cmax in ICR mouse plasma at 10 mg/kg, iv measured after 20 mins by LC-MS/MS analysis. The class given is ADME, organism-based. Details: dose 10 mg/kg, route intravenous.
Data set [18] has as its system Staphylococcus aureus. The data set can be described thus: Antibacterial activity against methicillin-resistant Staphylococcus aureus 4N216 infected in ICR mouse assessed as mouse survival rate at 20 mg/kg, iv administered as single dose 30 mins post-infection measured day 7 post infection relative to control. The class given is functional. The following applies: 4N216, iv.

In data set [19] the test system is Enterococcus faecalis. The data set can be described thus: Potency index, ratio of […] MIC to compound MIC against vanomycin-resistant Enterococcus faecalis ATCC 51299.
In data set [20] the test system is Mus musculus. The data set can be described thus: Acute toxicity in ICR mouse assessed as increase in survival at 100 mg/kg, iv measured after 2 weeks. The class given is organism-based. The conditions noted are these: in vivo, 336 h.
For data set [21], the system named is Mus musculus. The data set can be described thus: Acute toxicity in ICR mouse assessed as increase in body weight at 100 mg/kg, iv measured daily for 2 weeks. The following applies: in vivo, 336 h. It counts as organism-based.
Data set [22] has as its system Staphylococcus aureus. The data set can be described thus: Potency index, ratio of vanomycin MIC to compound MIC against vancomycin-intermediate and daptomycin-nonsusceptible methicillin-resistant Staphylococcus aureus Z172. The class given is functional.

In general, MIC refers to the lowest concentration found to suppress growth. A low value points to inhibition by little substance. In general, AUC(0-t) refers to exposure summed from dosing to a finite time, without extrapolation to infinity. A lower AUC(0-t) goes with less exposure. Usually clearance stands for the rate of elimination divided by the concentration. In general, half-life refers to the time in which the quantity being followed falls by half. A higher half-life goes with slow decline. For orientation: Cmax means the maximum level reached in the sampled fluid or tissue.

≈ marks a conversion by molar mass, not a printed value.

Consider `O[C@@H](CNCCc1c[nH]c2ccc(Cl)cc12)Cn1c2ccc(Br)cc2c2cc(Br)ccc21`, for which the MIC with Staphylococcus aureus [1] and with Staphylococcus aureus [2] was 1 mg/L (≈ 1.74 µM) throughout.
On to `O[C@H](CNCCc1c[nH]c2cc(F)ccc12)Cn1c2ccc(Cl)cc2c2cc(Cl)ccc21`, for which the MIC against Staphylococcus aureus [1] and against Staphylococcus aureus [2] was 0.5 to 1 mg/L (≈ 1.06 to 2.13 µM) each time.
Consider `OC(CNCCc1cccc(F)c1)Cn1ccc2cc(Br)ccc21` (configuration not stated), for which the MIC was 16 to 32 mg/L (≈ 40.9 to 81.8 µM) in the data set on Staphylococcus aureus [1] and 8 mg/L (≈ 20.4 µM) with Staphylococcus aureus [2].
The corresponding values for `OC(CNCCc1cccc(F)c1)Cn1c2ccc(Br)cc2c2cc(Br)ccc21` (configuration not stated) are 1 to 2 mg/L (≈ 1.92 to 3.84 µM) and 1 to 2 mg/L (≈ 1.92 to 3.84 µM).
For `OC(CNCCc1c[nH]c2cc(F)ccc12)Cn1c2ccccc2c2ccccc21` (configuration not stated), in that order: 4 mg/L (≈ 9.96 µM) and 4 mg/L (≈ 9.96 µM).
`OC(CNCCc1cccc(Cl)c1)Cn1c2ccc(Cl)cc2c2cc(Cl)ccc21` (configuration not stated): the MIC with Staphylococcus aureus [3] is 4 mg/L (≈ 8.93 µM); with Staphylococcus aureus [4], 0.5 to 1 mg/L (≈ 1.12 to 2.23 µM); against Staphylococcus aureus [5] it was 1 mg/L (≈ 2.23 µM); with Pseudomonas aeruginosa, > 64 mg/L; in the data set on Staphylococcus aureus [6], 4 mg/L (≈ 8.93 µM); with Staphylococcus aureus [7], 4 mg/L (≈ 8.93 µM). The MIC with Staphylococcus aureus [8] is 4 mg/L (≈ 8.93 µM); with Enterococcus faecalis [9] it was 2 mg/L (≈ 4.47 µM); with Acinetobacter baumannii it was > 64 mg/L; against Escherichia coli, > 64 mg/L; against Staphylococcus aureus [10] it was 4 mg/L (≈ 8.93 µM); against Staphylococcus aureus [11], 4 mg/L (≈ 8.93 µM). Besides, the MIC in the data set with Klebsiella pneumoniae was > 64 mg/L; in the data set on Staphylococcus aureus [12], 4 mg/L (≈ 8.93 µM).
Compound `CN[C@H](CC(C)C)C(=O)N[C@H]1C(=O)N[C@@H](CC(N)=O)C(=O)N[C@H]2C(=O)N[C@H]3C(=O)N[C@H](C(=O)N[C@H](C(=O)O)c4cc(O)cc(O)c4-c4cc3ccc4O)[C@H](O)c3ccc(c(Cl)c3)Oc3cc2cc(c3O[C@@H]2O[C@H](CO)[C@@H](O)[C@H](O)[C@H]2O[C@H]2C[C@](C)(N)[C@H](O)[C@H](C)O2)Oc2ccc(cc2Cl)[C@H]1O` [VANCOMYCIN] gave an AUC(0-t) at 24 h in data set [13] of 13.7 µg·h/mL. The MIC in the data set on Staphylococcus aureus [6] is ≤ 0.5 mg/L; against Enterococcus faecalis [9], 8 to 16 mg/L (≈ 5.52 to 11 µM). In data set [14], this compound came in with a clearance of 0.702 L/h/kg. In addition, the Vd in [15] worked out at 0.3 L/kg. The compound also gave a half-life in data set [16] of 0.6 h. In data set [17], this compound yielded a Cmax of 58.5 µg/mL. Further, in the data set on Staphylococcus aureus [18], the survival at 20 mg/kg amounted to 100%.
Regarding `OC(CNCCc1c[nH]c2ccc(Cl)cc12)Cn1c2ccc(Br)cc2c2cc(Br)ccc21` (racemic), the MIC in the data set on Staphylococcus aureus [3] is 2 mg/L (≈ 3.47 µM); in the data set with Staphylococcus aureus [1], 1 mg/L (≈ 1.74 µM); with Staphylococcus aureus [4], 1 mg/L (≈ 1.74 µM); in the data set with Staphylococcus aureus [5], 1 mg/L (≈ 1.74 µM); in the data set with Pseudomonas aeruginosa, > 64 mg/L; in the data set on Staphylococcus aureus [6], 1 mg/L (≈ 1.74 µM). In addition, the MIC in the data set with Staphylococcus aureus [7] is 1 mg/L (≈ 1.74 µM); against Staphylococcus aureus [8] it was 1 mg/L (≈ 1.74 µM); in the data set on Enterococcus faecalis [9] it was 1 mg/L (≈ 1.74 µM); with Acinetobacter baumannii, > 64 mg/L; against Escherichia coli it was > 64 mg/L; in the data set with Staphylococcus aureus [10], 1 mg/L (≈ 1.74 µM). The MIC in the data set with Staphylococcus aureus [11] was 1 mg/L (≈ 1.74 µM); in the data set on Klebsiella pneumoniae, > 64 mg/L; in the data set on Staphylococcus aureus [12] it was 1 mg/L (≈ 1.74 µM); with Staphylococcus aureus [2], 1 mg/L (≈ 1.74 µM). For the same compound, the Ratio in the data set on Enterococcus faecalis [19] is on record as 4 - 18.
For `OC(CNc1cc(Cl)nc(Cl)n1)Cn1c2ccc(Br)cc2c2cc(Br)ccc21` (configuration not stated), the MIC in the data set on Staphylococcus aureus [1] and in the data set with Staphylococcus aureus [2] was > 32 mg/L throughout.
As for `OC(CNCCc1c[nH]c2cc(F)ccc12)Cn1c2ccc(Cl)cc2c2cc(Cl)ccc21` (racemic), the MIC against Staphylococcus aureus [3] was 1 mg/L (≈ 2.13 µM); against Staphylococcus aureus [1], 0.5 to 1 mg/L (≈ 1.06 to 2.13 µM); against Staphylococcus aureus [4], 0.5 mg/L (≈ 1.06 µM); in the data set with Staphylococcus aureus [5] it was 1 mg/L (≈ 2.13 µM); against Pseudomonas aeruginosa it was > 64 mg/L; with Staphylococcus aureus [6], 1 mg/L (≈ 2.13 µM). The MIC against Staphylococcus aureus [7] came out at 1 mg/L (≈ 2.13 µM); with Staphylococcus aureus [8], 1 mg/L (≈ 2.13 µM); in the data set on Enterococcus faecalis [9], 1 mg/L (≈ 2.13 µM); with Acinetobacter baumannii, 8 mg/L (≈ 17 µM); against Escherichia coli, 4 mg/L (≈ 8.5 µM); against Staphylococcus aureus [10] it was 1 mg/L (≈ 2.13 µM). The MIC is 1 mg/L (≈ 2.13 µM) against Staphylococcus aureus [11], > 64 mg/L against Klebsiella pneumoniae, 1 mg/L (≈ 2.13 µM) against Staphylococcus aureus [12] and 0.5 to 1 mg/L (≈ 1.06 to 2.13 µM) against Staphylococcus aureus [2]. Besides, in data set [13], the AUC(0-t) at 24 h came out at 20.5 µg·h/mL. The clearance in data set [14] came to 0.414 L/h/kg. In data set [15], the Vd was 4.9 L/kg. In addition, in data set [16], the half-life is 10.3 h. For the same compound, the Ratio in the data set with Enterococcus faecalis [19] is given as 4 - 18; in the data set on Staphylococcus aureus [22], 4 - 16. Further, the Activity entry in the data set on Mus musculus [20] and in the data set with Mus musculus [21] was “Non-Toxic” in each case. Also, the Cmax in [17] amounted to 29.7 µg/mL. Further, the survival at 20 mg/kg with Staphylococcus aureus [18] was found to be 75%.
